pIC50: −log10 of the molar value.
What was measured:
Assay type in all cases: biochemical
K-Ras G12S = biological target: T1, K-Ras G12S (Homo sapiens, UniProt P01116, G12S); test: HTRF resonance energy transfer assay, K-Ras G12S / SOS1 interaction; conditions: HTRF assay of Example 5; read-out: IC50 against K-Ras G12S
T1 construct: made in house; host or cells: E. coli BL21 (DE3)
Outline: (§1)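 Buffer about 5 mM HEPES pH 7.4 with ~150 mM NaCl, ~1 mM DTT, 0.05% BSA, 0.0025% (v/v) Igepal. Protein constructs used at molarity matching the IC50 range studied (e.g. ~500 nM). FRET between tagged K-Ras and hSOS1 measured after short incubation.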

K-Ras G12V = biological target: T2, K-Ras G12V (Homo sapiens, UniProt P01116, G12V); test: HTRF resonance energy transfer assay, K-Ras G12V / SOS1 interaction; conditions: HTRF assay of Example 5; read-out: IC50 against K-Ras G12V
T2 construct: made in house; host or cells: E. coli BL21 (DE3)
Outline: as §1

K-Ras G12D = biological target: T3, K-Ras G12D (Homo sapiens, UniProt P01116, G12D); test: HTRF resonance energy transfer assay, K-Ras G12D / SOS1 interaction; conditions: HTRF assay of Example 5; read-out: IC50 against K-Ras G12D
T3 construct: made in house; host or cells: E. coli BL21 (DE3)
Description: This assay can be also used to assess a selective inhibition or reduction of signaling output of a mutant Ras protein relative to a wildtype, or relative to a different mutant Ras protein. For example, the equilibrium interaction of wildtype Kras or K-Ras mutant (e.g., wildtype or a mutant thereof) with SOS1 (e.g., hSOS1) can be assessed as a proxy or an indication for a subject compound's ability to bind and inhibit Ras protein. HTRF assay detects from (i) a fluorescence resonance energy transfer (FRET) donor (e.g., antiGST-Europium) that is bound to GST-tagged K-Ras mutant to (ii) a FRET acceptor (e.g., anti-6His-XL665) bound to a His-tagged hSOS1.
The assay buffer can contain˜5 mM HEPES pH 7.4, ˜150 mM NaCl, ˜ 1 mM DTT, 0.05% BSA and 0.0025%(v/v) Igepal. A Ras working solution is prepared in an assay buffer containing typically a suitable amount of the protein construct (e.g., GST-tagged K-Ras mutant) and the FRET donor (e.g., antiGST-Eu(K) from Cisbio, France). A SOS1 working solution is prepared in an assay buffer containing suitable amount of the protein construct (e.g., His-hSOS1) and the FRET acceptor (e.g., anti-6His-XL665 from Cisbio, France). A suitable amount of the protein construct will depend on the range of activity or range of IC50 values being detected or under investigation. For detecting IC50 within a range of 500 nM, the protein constructs of the same range of molarity can be utilized.
A fixed volume of DMSO with or without test compound is transferred into a 384-well plate. Ras working solution is added to all wells of the test plate. SOS1 working solution is added to all wells except for those that are subsequently filled the inhibitor control solution. Upon incubation for about 10 minutes or longer, the fluorescence is measured with a M1000Pro plate reader (Tecan) using HTRF detection (excitation 337 nm, emission 1: 620 nm, emission 2: 665 nm). Compounds are tested in duplicates at different concentrations (for example, 10 μM, 2.5 μM, 0.63 μM, 0.16 μM, 0.04 μM, 0.01 μM test compound). The ratiometric data (i.e., emission 2 divided by emission 1) is used to calculate IC50 values against Ras using GraphPad Prism (GraphPad software). Following this general procedure, samples were tested with or without a subject compound disclosed herein including compounds exemplified in Table 1 to assess their abilities to inhibit a K-Ras mutant relative to another mutant or WT. Signaling output measured in terms of IC50 values can be obtained, a ratio of IC50 against one mutant relative to another mutant can be calculated. For instance, a selective reduction of K-Ras G12D signaling output can be evidenced by a ratio greater than one. In particular, a selective reduction of K-Ras G12D signaling relative to K-Ras WT signaling is evidenced as the ratio of IC50 (against K-Ras WT) to IC50 (against K-Ras G12D) is greater than 1.

K-Ras WT = biological target: T4, K-Ras WT (Homo sapiens, UniProt P01116); test: HTRF resonance energy transfer assay, K-Ras WT / SOS1 interaction; conditions: HTRF assay of Example 5; read-out: IC50 against K-Ras WT
T4 construct: made in house; host or cells: E. coli BL21 (DE3)
Outline: as §1

Measured: pIC50

T2 sequence (P01116 1-188 isoform P01116-2 G12V): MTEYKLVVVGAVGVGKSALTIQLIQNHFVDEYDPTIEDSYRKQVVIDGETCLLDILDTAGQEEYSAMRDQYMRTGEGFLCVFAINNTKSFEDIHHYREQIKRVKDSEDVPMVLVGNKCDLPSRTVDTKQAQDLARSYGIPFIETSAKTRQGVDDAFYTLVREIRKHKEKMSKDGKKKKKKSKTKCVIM
T4 sequence (P01116 1-188 isoform P01116-2): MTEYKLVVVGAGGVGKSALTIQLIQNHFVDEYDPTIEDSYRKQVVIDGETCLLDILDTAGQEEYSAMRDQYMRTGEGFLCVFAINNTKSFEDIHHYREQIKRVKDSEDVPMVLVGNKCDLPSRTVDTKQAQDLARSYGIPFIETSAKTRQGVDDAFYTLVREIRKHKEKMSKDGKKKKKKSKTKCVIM
T3 sequence (P01116 1-188 isoform P01116-2 G12D): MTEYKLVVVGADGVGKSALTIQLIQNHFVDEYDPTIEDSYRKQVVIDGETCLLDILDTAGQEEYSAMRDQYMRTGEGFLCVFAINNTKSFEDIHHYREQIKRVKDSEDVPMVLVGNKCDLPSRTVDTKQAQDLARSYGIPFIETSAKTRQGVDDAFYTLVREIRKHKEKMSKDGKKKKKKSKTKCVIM
T1 sequence (P01116 1-188 isoform P01116-2 G12S): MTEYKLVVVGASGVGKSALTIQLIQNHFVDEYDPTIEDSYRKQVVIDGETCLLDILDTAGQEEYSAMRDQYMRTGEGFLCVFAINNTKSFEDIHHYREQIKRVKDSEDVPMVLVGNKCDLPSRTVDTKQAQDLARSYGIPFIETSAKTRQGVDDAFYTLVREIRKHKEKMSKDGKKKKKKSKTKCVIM

CC(O)C1COc2c(Cl)c(-c3ccc(F)c4sc(N)c(C#N)c34)c(F)c3nc(OC[C@@]45CCCN4C[C@H](F)C5)nc(c23)N1CC1(N(C)C)CCC1 (stereo partly drawn) [Compound 773, 2-amino-4-(8-chloro-4-((1-(dimethylamino)cyclobutyl)methyl)-10-fluoro-2-(((2R,7aS)-2-fluorotetrahydro-1H-pyrrolizin-7a(5H)-yl)methoxy)-5-(1-hydroxyethyl)-5,6-dihydro-4H-[1,4]oxazepino[5,6,7-de]quinazolin-9-yl)-7-fluorobenzo[b]thiophene-3-carbonitrile]
> 7.00: all assays above

CNCCCN1CCOc2c(Cl)c(-c3ccc(F)c4sc(N)c(C#N)c34)c(F)c3nc(OC[C@@]45CCCN4C[C@H](F)C5)nc1c23 [Compound 778, 2-amino-4-(8-chloro-10-fluoro-2-(((2R,7aS)-2-fluorotetrahydro-1H-pyrrolizin-7a(5H)-yl)methoxy)-4-(3-(methylamino)propyl)-5,6-dihydro-4H-[1,4]oxazepino[5,6,7-de]quinazolin-9-yl)-7-fluorobenzo[b]thiophene-3-carbonitrile]
> 7.00: all assays above

N#Cc1c(N)sc2c(F)ccc(-c3c(Cl)c4c5c(nc(OC[C@@]67CCCN6C[C@H](F)C7)nc5c3F)N(C3CCCNC3)CCO4)c12 (stereo partly drawn) [Compound 787, 2-amino-4-(8-chloro-10-fluoro-2-(((2R,7aS)-2-fluorotetrahydro-1H-pyrrolizin-7a(5H)-yl)methoxy)-4-(piperidin-3-yl)-5,6-dihydro-4H-[1,4]oxazepino[5,6,7-de]quinazolin-9-yl)-7-fluorobenzo[b]thiophene-3-carbonitrile]
> 7.00: all assays above

C#C[C@H]1COc2c(Cl)c(-c3ccc(F)c4sc(N)c(C#N)c34)c(F)c3nc(OC[C@@]45CCCN4C[C@H](F)C5)nc(c23)N1CCC(F)F [Compound 788, 2-amino-4-((5S)-8-chloro-4-(3,3-difluoropropyl)-5-ethynyl-10-fluoro-2-(((2R,7aS)-2-fluorotetrahydro-1H-pyrrolizin-7a(5H)-yl)methoxy)-5,6-dihydro-4H-[1,4]oxazepino[5,6,7-de]quinazolin-9-yl)-7-fluorobenzo[b]thiophene-3-carbonitrile]
> 7.00: all assays above

N#Cc1c(N)sc2c(F)ccc(-c3c(Cl)c4c5c(nc(OC[C@@]67CCCN6C[C@H](F)C7)nc5c3F)N(CC(F)F)C(C3CCN3)CO4)c12 (stereo partly drawn) [Compound 816, 2-amino-4-(5-(azetidin-2-yl)-8-chloro-4-(2,2-difluoroethyl)-10-fluoro-2-(((2R,7aS)-2-fluorotetrahydro-1H-pyrrolizin-7a(5H)-yl)methoxy)-5,6-dihydro-4H-[1,4]oxazepino[5,6,7-de]quinazolin-9-yl)-7-fluorobenzo[b]thiophene-3-carbonitrile]
> 7.00: all assays above

N#Cc1c(N)sc2c(F)ccc(-c3c(Cl)c4c5c(nc(OC[C@@]67CCCN6C[C@H](F)C7)nc5c3F)N(C3CNC3)CCO4)c12 [Compound 828, 2-amino-4-(4-(azetidin-3-yl)-8-chloro-10-fluoro-2-(((2R,7aS)-2-fluorotetrahydro-1H-pyrrolizin-7a(5H)-yl)methoxy)-5,6-dihydro-4H-[1,4]oxazepino[5,6,7-de]quinazolin-9-yl)-7-fluorobenzo[b]thiophene-3-carbonitrile]
> 7.00: all assays above

N#Cc1c(N)sc2c(F)ccc(-c3c(Cl)c4c5c(nc(OC[C@@]67CCCN6C[C@H](F)C7)nc5c3F)N(CC(F)F)C(CO)CO4)c12 (stereo partly drawn) [Compound 840, 2-amino-4-(8-chloro-4-(2,2-difluoroethyl)-10-fluoro-2-(((2R,7aS)-2-fluorotetrahydro-1H-pyrrolizin-7a(5H)-yl)methoxy)-5-(hydroxymethyl)-5,6-dihydro-4H-[1,4]oxazepino[5,6,7-de]quinazolin-9-yl)-7-fluorobenzo[b]thiophene-3-carbonitrile]
> 7.00: all assays above

C#C[C@H]1COc2c(Cl)c(-c3ccc(F)c4sc(N)c(C#N)c34)c(F)c3nc(OC[C@@]45CCCN4C[C@H](F)C5)nc(c23)N1C1CCOC1 (stereo partly drawn) [Compound 843, 2-amino-4-((5S)-8-chloro-5-ethynyl-10-fluoro-2-(((2R,7aS)-2-fluorotetrahydro-1H-pyrrolizin-7a(5H)-yl)methoxy)-4-(tetrahydrofuran-3-yl)-5,6-dihydro-4H-[1,4]oxazepino[5,6,7-de]quinazolin-9-yl)-7-fluorobenzo[b]thiophene-3-carbonitrile]
> 7.00: all assays above

CC(O)C1COc2c(Cl)c(-c3ccc(F)c4sc(N)c(C#N)c34)c(F)c3nc(OC[C@@]45CCCN4C[C@H](F)C5)nc(c23)N1CC1CNC1 (stereo partly drawn) [Compound 848, 2-amino-4-(4-(azetidin-3-ylmethyl)-8-chloro-10-fluoro-2-(((2R,7aS)-2-fluorotetrahydro-1H-pyrrolizin-7a(5H)-yl)methoxy)-5-(1-hydroxyethyl)-5,6-dihydro-4H-[1,4]oxazepino[5,6,7-de]quinazolin-9-yl)-7-fluorobenzo[b]thiophene-3-carbonitrile]
> 7.00: all assays above

C[C@H](Oc1nc2c3c(c(Cl)c(-c4ccc(F)c5sc(N)c(C#N)c45)c(F)c3n1)OCCN2C1CC2(CNC2)C1)[C@@H]1CCCN1C [Compound 856, 2-amino-4-(8-chloro-10-fluoro-2-((S)-1-((S)-1-methylpyrrolidin-2-yl)ethoxy)-4-(2-azaspiro[3.3]heptan-6-yl)-5,6-dihydro-4H-[1,4]oxazepino[5,6,7-de]quinazolin-9-yl)-7-fluorobenzo[b]thiophene-3-carbonitrile]
> 7.00: all assays above

N#Cc1c(N)sc2c(F)ccc(-c3c(Cl)c4c5c(nc(OC[C@@]67CCCN6C[C@H](F)C7)nc5c3F)N([C@H]3CCNC3)CCO4)c12 [Compound 858, 2-amino-4-(8-chloro-10-fluoro-2-(((2R,7aS)-2-fluorotetrahydro-1H-pyrrolizin-7a(5H)-yl)methoxy)-4-((S)-pyrrolidin-3-yl)-5,6-dihydro-4H-[1,4]oxazepino[5,6,7-de]quinazolin-9-yl)-7-fluorobenzo[b]thiophene-3-carbonitrile]
> 7.00: all assays above

Nc1nc2c(-c3c(Cl)c4c5c(nc(OC[C@@]67CCCN6C[C@H](F)C7)nc5c3F)N(C3CCNCC3)CCO4)ccc(F)c2s1 [Compound 898, 4-(8-chloro-10-fluoro-2-(((2R,7aS)-2-fluorotetrahydro-1H-pyrrolizin-7a(5H)-yl)methoxy)-4-(piperidin-4-yl)-5,6-dihydro-4H-[1,4]oxazepino[5,6,7-de]quinazolin-9-yl)-7-fluorobenzo[d]thiazol-2-amine]
> 7.00: all assays above

— patent US12209102B2, “Heterocyclic compounds and uses thereof” (Kumquat Biosciences Inc., priority 2022, dated 2025)
